Experimental data taken from the supplement of paper PMC10307832.

Experiments:
Test in all cases: relative viability (nuclei count vs DMSO), 5 days (fraction); higher = more cells survive
Erlotinib + Palbociclib = compound: C#Cc1cccc(Nc2ncnc3cc(OCCOC)c(OCCOC)cc23)c1 [Erlotinib] + CC(=O)c1c(C)c2cnc(Nc3ccc(N4CCNCC4)cn3)nc2n(C2CCCC2)c1=O [Palbociclib] (partner 0.5 µM)
Summary of the method: (§1)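 One day after seeding in 1536-well plates, lung cancer cell lines were dosed by pin tool. Dosing was either single-drug or a fixed anchor-drug dose plus five library-drug doses (not always all listed) in √10 steps. After 5 days, nuclei were stained in one fix-and-stain step and counted on 4× images, and relative viability is the nuclei count of treated wells over that of vehicle wells, given as the median of duplicate plates.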

Erlotinib + Navitoclax = compound: C#Cc1cccc(Nc2ncnc3cc(OCCOC)c(OCCOC)cc23)c1 [Erlotinib] + CC1(C)CCC(c2ccc(Cl)cc2)=C(CN2CCN(c3ccc(C(=O)NS(=O)(=O)c4ccc(N[C@H](CCN5CCOCC5)CSc5ccccc5)c(S(=O)(=O)C(F)(F)F)c4)cc3)CC2)C1 [Navitoclax] (partner 0.5 µM)
Summary of the method: as §1

AT9283 + Palbociclib = compound: O=C(Nc1c[nH]nc1-c1nc2ccc(CN3CCOCC3)cc2[nH]1)NC1CC1 [AT9283] + CC(=O)c1c(C)c2cnc(Nc3ccc(N4CCNCC4)cn3)nc2n(C2CCCC2)c1=O [Palbociclib] (partner 0.5 µM)
Summary of the method: as §1

AT9283 + Linsitinib = compound: O=C(Nc1c[nH]nc1-c1nc2ccc(CN3CCOCC3)cc2[nH]1)NC1CC1 [AT9283] + C[C@]1(O)C[C@@H](c2nc(-c3ccc4ccc(-c5ccccc5)nc4c3)c3c(N)nccn32)C1 [Linsitinib] (partner 1 µM)
Summary of the method: as §1

AT9283 + Phenformin = compound: O=C(Nc1c[nH]nc1-c1nc2ccc(CN3CCOCC3)cc2[nH]1)NC1CC1 [AT9283] + N=C(N)NC(=N)NCCc1ccccc1 [Phenformin] (partner 250 µM)
Summary of the method: as §1

Cell Line | relative viability (Erlotinib + Palbociclib; first compound 0.02 µM) | relative viability (Erlotinib + Palbociclib; first compound 0.2 µM) | relative viability (Erlotinib + Palbociclib; first compound 0.6325 µM) | relative viability (Erlotinib + Palbociclib; first compound 2 µM) | relative viability (Erlotinib + Navitoclax; first compound 0.02 µM) | relative viability (Erlotinib + Navitoclax; first compound 0.2 µM) | relative viability (Erlotinib + Navitoclax; first compound 0.6325 µM) | relative viability (Erlotinib + Navitoclax; first compound 2 µM) | relative viability (AT9283 + Palbociclib; first compound 0.003 µM) | relative viability (AT9283 + Palbociclib; first compound 0.03 µM) | relative viability (AT9283 + Palbociclib; first compound 0.09487 µM) | relative viability (AT9283 + Palbociclib; first compound 0.3 µM) | relative viability (AT9283 + Linsitinib; first compound 0.003 µM) | relative viability (AT9283 + Linsitinib; first compound 0.03 µM) | relative viability (AT9283 + Linsitinib; first compound 0.09487 µM) | relative viability (AT9283 + Linsitinib; first compound 0.3 µM) | relative viability (AT9283 + Phenformin; first compound 0.003 µM) | relative viability (AT9283 + Phenformin; first compound 0.03 µM) | relative viability (AT9283 + Phenformin; first compound 0.09487 µM) | relative viability (AT9283 + Phenformin; first compound 0.3 µM)
201T | 0.35 | 0.323 | 0.319 | 0.287 | 1.22 | 1.2 | 1.2 | 1.17 | 0.352 | 0.362 | 0.265 | 0.279 | 1.02 | 1.02 | 0.8 | 0.409 | 0.445 | 0.419 | 0.345 | 0.285
A549 | – | – | – | – | 1.1 | 1.26 | 1.33 | 1.06 | – | – | – | – | 0.539 | 0.311 | 0.0598 | 0.0613 | 0.284 | 0.0777 | 0.0526 | 0.0427
A-427 | 0.485 | 0.492 | 0.529 | 0.53 | 0.946 | 0.99 | 0.978 | 0.997 | 0.523 | 0.39 | 0.299 | 0.3 | 0.834 | 1.03 | 0.276 | 0.205 | 0.334 | 0.178 | 0.133 | 0.145
ABC-1 | – | 0.585 | 0.489 | – | – | – | – | – | 0.664 | 0.381 | 0.295 | 0.325 | 0.722 | 0.211 | 0.182 | 0.182 | 0.231 | 0.159 | 0.233 | 0.192
BEN | 0.497 | 0.442 | 0.507 | 0.483 | 0.0747 | 0.0625 | 0.0619 | 0.0646 | 0.458 | 0.456 | 0.412 | 0.356 | 0.718 | 0.894 | 0.2 | 0.227 | 0.259 | 0.253 | 0.256 | 0.176
CAL-12T | 0.433 | 0.125 | 0.154 | 0.146 | 1.35 | 1.31 | 0.614 | 0.546 | 0.543 | 0.257 | 0.165 | 0.217 | 0.905 | 0.286 | 0.22 | 0.202 | 0.607 | 0.345 | 0.267 | 0.18
COR-L23 | 0.292 | 0.287 | 0.383 | 0.29 | 1.16 | 1.04 | 1.08 | 1 | 0.286 | 0.141 | 0.11 | 0.121 | 0.867 | 0.152 | 0.0945 | 0.135 | 0.45 | 0.221 | 0.128 | 0.12
COR-L 105 | 0.402 | 0.322 | 0.359 | 0.328 | 0.809 | 0.531 | 0.364 | 0.283 | 0.392 | 0.327 | 0.328 | 0.286 | 0.854 | 0.333 | 0.221 | 0.288 | 0.513 | 0.2 | 0.303 | 0.223
Calu-6 | – | – | – | – | 0.919 | 0.803 | 0.781 | 0.759 | – | – | – | – | 0.859 | 0.286 | 0.222 | 0.197 | – | – | – | –
